{
  "source": "patent US20230134843A1",
  "about": "“TREATMENT OF STEM CELL DEFICIENCY” (OSPEDALE SAN RAFFAELE S.R.L., priority 2020, published 2023)",
  "molecular_target": "T1, NK1R (Mus musculus, UniProt P30548)",
  "T1 construct": "NK1R is expressed by both corneal epithelial and stem cell-like cells; from tissue; host or cells: cornea / ocular surface of live C57BL6/N mice (topical dosing in vivo)",
  "T1 sequence (P30548 whole entry)": "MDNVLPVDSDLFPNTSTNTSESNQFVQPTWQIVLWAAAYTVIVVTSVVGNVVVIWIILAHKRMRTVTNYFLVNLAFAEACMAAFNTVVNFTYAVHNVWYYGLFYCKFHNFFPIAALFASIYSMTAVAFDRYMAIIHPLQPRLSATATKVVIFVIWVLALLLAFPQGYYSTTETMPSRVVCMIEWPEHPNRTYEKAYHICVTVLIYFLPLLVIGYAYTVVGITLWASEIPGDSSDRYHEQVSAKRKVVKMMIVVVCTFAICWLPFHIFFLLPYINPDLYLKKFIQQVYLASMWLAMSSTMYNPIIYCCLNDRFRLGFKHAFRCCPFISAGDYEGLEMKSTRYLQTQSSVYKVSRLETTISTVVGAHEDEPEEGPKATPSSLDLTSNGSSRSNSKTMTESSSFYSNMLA",
  "assay": "Corneal opacity grading score, stem cell deficiency model (Example 2)",
  "format": "in vivo, mice",
  "from_the_text": "Eight-week-old male mice C57BL6/N (Charles River, Calco, Italy) (WT mice, n=18) and Tac1-deficient B6.Cg-Tac1tm1Bbm/J (Jackson Laboratories, Bar Harbor, Me., USA) (TAC1-KO mice, n=18) were used in all experiments. TAC1-KO mice are homozygous null for the Tac1 gene. […] The corneal thickness and transparency as well as the corneal nerve length are similar to C57BL/6 mice [Barbariga M, Rabiolo A, Fonteyne P, Bignami F, Rama P, Ferrari G. The effect of aging on nerve morphology and substance P expression in mouse and human corneas. Investig Ophthalmol Vis Sci 2018; 59:5329-35. https://doi.org/10.1167/iovs.18-24707.]. […]\nEvery day after disepithelization, in vivo corneal photographs were taken using a digital camera (EOS 30D; Canon, Tokyo, Japan) attached to a slit-lamp microscope (Photoslitmap 40 SL-P; Zeiss, Oberkochen, Germany) to assess corneal condition. Corneal opacity was evaluated using a grading score (from 0-4; 0=completely clear, 4=completely opaque) previously described [Yoeruek E, Deuter C, Gieselmann S, Saygili O, Spitzer M S, Tatar O, et al. Long-term visual acuity and its predictors after cataract surgery in patients with uveitis. […] The percentage of green fluorescent area on the total corneal area was evaluated by analyzing images by Image J software (National Institutes of Health, Bethesda, Md., USA).",
  "note": "“Also recorded” adds a separate entry of the source.",
  "data": [
    {"smiles": "C[C@@H](O[C@H]1OCCN(Cc2nc(=O)n(P(=O)(O)O)[nH]2)[C@H]1c1ccc(F)cc1)c1cc(C(F)(F)F)cc(C(F)(F)F)c1", "note": "[Fosaprepitant, [3-{[(2R,3S)-2-[(1R)-1-[3,5-bis(trifluoromethyl)phenyl]ethoxy]-3-(4-fluorophenyl)morpholin-4-yl]methyl}-5-oxo-2H-1,2,4-triazol-1-yl]phosphonic acid]", "values": [
      {"measurement": "corneal opacity compared to WT", "setting": "Fosaprepitant 0.1 mg/mL (FOSA 0.1) topically 4 times/day for 16 days", "result": "did not show any improvement; also recorded: no improvement"},
      {"measurement": "corneal transparency compared to WT", "setting": "Fosaprepitant 1 mg/mL (FOSA 1) topically 4 times/day for 16 days, p<0.05", "result": "significant improvement; also recorded: better corneal transparency"}
    ]}
  ]
}
